Results on 11 compounds are retold here after patent publication US11279966B2, “Method for identifying compound for inhibiting an activity of a histone lysine demethylase” (NATIONAL TSING HUA UNIVERSITY, priority 2014, dated 2022).

One data set deals with T1, KDM4A (Homo sapiens, UniProt O75164).
T1 construct: Human KDM4B 1-348 and KDM4A 1-347 were PCR amplified; His6 (N); made in house; host or cells: Escherichia coli BL21 (DE3)
T1 sequence (O75164 1-347): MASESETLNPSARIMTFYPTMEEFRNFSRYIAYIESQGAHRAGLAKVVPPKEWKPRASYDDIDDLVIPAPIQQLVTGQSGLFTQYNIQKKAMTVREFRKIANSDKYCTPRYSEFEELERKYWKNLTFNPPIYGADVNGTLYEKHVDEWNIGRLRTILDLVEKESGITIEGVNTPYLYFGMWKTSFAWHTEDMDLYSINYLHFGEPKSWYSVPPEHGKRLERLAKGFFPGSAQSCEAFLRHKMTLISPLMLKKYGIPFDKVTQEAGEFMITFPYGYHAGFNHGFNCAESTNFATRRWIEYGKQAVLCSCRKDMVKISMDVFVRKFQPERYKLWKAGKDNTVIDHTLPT
Description: Formaldehyde dehydrogenase-coupled demethylase assay, KDM4A. Format: biochemical. Also on record: Demethylase Residual Activity (%): concentration or dose not given beside the values. The following applies: for Demethylase Residual Activity (%): FDH-coupled assay.

For data set [1], the target named is T2, FDH (formaldehyde dehydrogenase) (Pseudomonas putida, UniProt P46154).
T2 construct: purchased Sigma
T2 sequence (P46154 1-399): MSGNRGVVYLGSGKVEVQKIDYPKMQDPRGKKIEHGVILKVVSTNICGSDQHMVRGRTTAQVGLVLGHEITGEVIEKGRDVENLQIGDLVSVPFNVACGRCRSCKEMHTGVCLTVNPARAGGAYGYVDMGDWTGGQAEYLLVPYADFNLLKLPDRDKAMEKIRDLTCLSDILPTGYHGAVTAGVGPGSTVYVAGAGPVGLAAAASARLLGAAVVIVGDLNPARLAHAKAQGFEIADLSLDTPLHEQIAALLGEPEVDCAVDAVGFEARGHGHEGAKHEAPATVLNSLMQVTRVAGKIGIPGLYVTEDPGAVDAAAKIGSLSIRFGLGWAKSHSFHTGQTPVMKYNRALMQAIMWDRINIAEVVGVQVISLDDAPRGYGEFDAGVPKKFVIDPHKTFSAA
Description: FDH residual activity (control for the coupling enzyme). Also on record: concentration or dose not given beside the values. Format: biochemical.

A further data set deals with T3, KDM4B (Homo sapiens, UniProt O94953).
T3 construct: Human KDM4B 1-348 and KDM4A 1-347 were PCR amplified; His6 (N); made in house; host or cells: Escherichia coli BL21 (DE3)
T3 sequence (O94953 1-348): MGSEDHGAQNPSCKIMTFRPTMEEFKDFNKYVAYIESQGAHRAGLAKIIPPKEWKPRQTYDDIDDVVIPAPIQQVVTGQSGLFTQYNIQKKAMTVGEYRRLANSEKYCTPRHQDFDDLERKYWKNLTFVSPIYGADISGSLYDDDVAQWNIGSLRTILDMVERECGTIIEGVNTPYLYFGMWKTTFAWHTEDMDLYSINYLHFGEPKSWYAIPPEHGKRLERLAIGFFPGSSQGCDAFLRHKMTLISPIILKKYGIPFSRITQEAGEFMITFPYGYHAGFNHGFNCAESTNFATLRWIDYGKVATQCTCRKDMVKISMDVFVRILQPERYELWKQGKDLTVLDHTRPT
Description: Formaldehyde dehydrogenase-coupled demethylase assay, KDM4B. Also on record: concentration or dose not given beside the values. It counts as biochemical. Conditions: FDH-coupled assay.

A short description of the next data set: in vitro. It counts as cell-based. Conditions: human. Here is the method: (§1) LNCaP cells are infected with lentivirus with control shRNA (control) and shKDM4A or shKDM4B as indicated (left panel). The qRT-PCR analysis is performed to evaluate the expression of KDM4s (right panel). […] LNCaP cells are treated with 1,5-bis[(E)-2-(3,4-dichlorophenyl) ethenyl]-2,4-dinitrobenzene for three days, and the viability is measured by viable cell count. SD is derived from biological triplicates. The level of H3K9me3 of 1,5-bis[(E)-2-(3,4-dichlorophenyl)ethenyl]-2,4-dinitrobenzene-treated cells (24 hr) is detected and quantified by AlphaView SA (Cell Biosciences Inc.). The level of H3K9me3 is shown by bar graph.
Primary PrEC cells were purchased from Clonetics (Walkersville, Md.) and cultured in serum-free prostate epithelial cell growth medium following the vendor's directions. Cell lines RWPE1, LNCaP (LNCaP-FGC), CWR22Rv1 (22Rv1), VCaP, DU145, PC3 (all purchased from ATCC), and PNT2 (Sigma Aldrich, MO), were cultured under condition as recommended. CWR-R1 cell (40) and LNCaP derived C4-2, C4-2B cells were cultured in RPMI1640 medium containing 10% FBS.

Data set [2] deals with LNCaP cells. The data set can be described thus: Microarray gene expression analysis of treated LNCaP cells. Format: cell-based, human. Conditions: 3 days. The method, then:
LNCaP cells treated with mock and the 1,5-bis[(E)-2-(3,4-dichlorophenyl) ethenyl]-2,4-dinitrobenzene inhibitor for 3 days were harvested and the total RNA was extracted using Trizol reagent (Life Technologies, NY). Microarray analysis was performed by the University of California Davis Cancer Center Gene Expression Resource, using Affymetrix Human Genome U133A (HG-U133A) GeneChip arrays (Affymetrix, CA), which permit expression analysis of the entire Genbank RefSeq database. Array scanning and generation of raw signal data files were done with GeneChip Operating Software (Affymetrix). Subsequent data analysis was done by GeneSpring (Agilent Technologies, CA) and DAVID Bioinformatic Resources 6.7 (NIH).

Data set [3] has as its system LNCaP cells. Description: Flow cytometric analysis of DNA content (sub-G1, apoptosis) in LNCaP cells. It counts as cell-based, human. The following applies: 50 μM, 3 days; mock 11.9%. Here is the method:
as §1
(§2) Total cell lysates were obtained by lysing the cell with buffer (50 mM Tris-HCl pH7.5, 150 mM NaCl, 0.5% Triton X-100, 10% glycerol, 1 mM EDTA, protease inhibitors) for 15 min on ice, followed by 10 min of sonication cycle (30 sec on, 30 sec off) on ice. The level of total histone H3 and trimethylated histone H3 Lys9 was analyzed by western blotting using anti-histone H3 and anti-H3K9me3 antibodies (Abcam, MA). Cells treated with mock and the inhibitor were harvested and fixed by 70% ethanol for >4 hours at −20° C., followed by propidium iodide (Sigma Aldrich) staining. The DNA content was analyzed by Becton Dickinson FACScan flow cytometry, and the sub-G1 population was quantified by WinMDI 2.9.

For a further data set, the system named is H3K9me3 in LNCaP cells. Description: Cellular level of H3K9me3 in LNCaP cells, immunoblotting. Format: cell-based, human. Here is the method: as §1, §2
On the technique in general: In western blotting, separated proteins are transferred to a membrane and probed.

The subject of data set [4] is KDM4A/KDM4B. Description: KDM4A/KDM4B inhibitory assay, results stated in words. Format: biochemical, human. The method, then: Formaldehyde dehydrogenase-coupled demethylase assay was used to determine the demethylase activity and select the potent inhibitors. All inhibitors were dissolved in dimethyl sulfoxide (DMSO) at various concentrations, and added to the mixture that the final DMSO concentration is 5%. The reagents for demethylase reactions were dissolved in HEPES buffer (50 mM, pH 7.5), with the exception of Fe(II) solutions, which were made using (NH4)2Fe(SO4)2 dissolved in 20 mM HCl to make 400 mM stock solution. All the reagents were stored at −30° C. FDH, NAD+, H-TKQTARK(Me3)[…]-OH (TR-15, H33-17K9me3, Kelowna), DMSO, and KDM4B were added first to 96-well black immune plate (SPL Life Science) and incubated together on ice for 15 min. Then the plate was put into FLUOStar OPTIMA ELISA reader (BMG LABTECH) with 37° C., and the reaction was started by adding ascorbic acid (ascorbate), Fe(II), and α-ketoglutarate (AKG) to final concentration of 50 mM HEPES, pH 7.5, 2 μM of KDM4B, 5% DMSO, 0.01 U FDH (Sigma), 1 mM NAD+, 1 mM 2-OG, 2 mM ascorbate, and 50 μM Fe(II), various concentration of H3K9me3 peptide, and the final volume was 50 μl. Each reaction was incubated at 37° C. for 30 min and the production of NADH would be detected by using the fluorescence Ex 360/Em 470. […]

Data set [5] has as its system KDM4A/KDM4B. Conditions: calf thymus histones as substrate.
Another data set deals with HeLa cells. The following applies: read-out: cytotoxic IC50 in HeLa cells; cited from earlier work.

Molecules are shown by their SMILES.

Consider `O=C1C=CC=C/C1=C\Nc1cc(C(=O)O)cc(C(=O)O)c1` [NSC124029], for which the “Demethylase Residual Activity (%)” value on KDM4A came out at 93%; at KDM4B, 62%. Further, the “FDH Residual Activity (%)” value in data set [1] came to 97%.
In the data set “in vitro”, `O=[N+]([O-])c1cc([N+](=O)[O-])c(/C=C/c2ccc(Cl)c(Cl)c2)cc1/C=C/c1ccc(Cl)c(Cl)c1` [NSC636819] displayed an IC50 at 3 days of 21.2 µM. Further, in the data set with LNCaP cells [2], the “expression of oncogenes IGF1R, FGFR3, CCNE2, AURKA and AURKB” value is reported as “down-regulation”; the “expression of tumour suppressors RB1, CDH1” value was “up-regulation”. Further, in the data set with LNCaP cells [2] (≥two-fold alterations, 178/656), the “portion of the altered genes found to be androgen responsive genes” value was 27%. Moreover, the “apoptotic LNCaP cells” value in the data set on LNCaP cells [3] stood at 39.5%. On KDM4A (against H33-17K9me3), the inhibitory mode result was “competitive”. The “FDH Residual Activity (%)” value in [1] was over 80%. Besides, in the data set with H3K9me3 in LNCaP cells (5 μM), the “demethylating activity toward H3K9me3 in cells” value is recorded as “essentially completely blocked”. In the data set with H3K9me3 in LNCaP cells (24 hr, dose-dependent), the “cellular level of H3K9me3” value is recorded as “notable increase”.
With `COC1CC(OC(=O)c2ccc([N+](=O)[O-])cc2)C(OC(=O)c2ccc([N+](=O)[O-])cc2)C(C)O1` (stereo not shown) [NSC107408], the results for the “Demethylase Residual Activity (%)” value on KDM4A and on KDM4B were 99% and 64%, respectively. Besides, the “FDH Residual Activity (%)” value in data set [1] is on record as over 80%. Further, in the data set with KDM4A/KDM4B [4], the “inhibitory effect on KDM4A/KDM4B (in words)” value is “no inhibition”.
As to `COC(=O)C(C(=O)C(=O)Nc1ccc([N+](=O)[O-])cc1[N+](=O)[O-])c1nc2ccc(Cl)cc2[nH]c1=O` (stereo not shown) [NSC640999], the “Demethylase Residual Activity (%)” value at KDM4A was 77%; on KDM4B, 49%. In addition, the “FDH Residual Activity (%)” value in data set [1] is over 80%.
For `O=C1C=Cc2ccccc2/C1=N/Nc1ccc([N+](=O)[O-])cc1[N+](=O)[O-]` [NSC15975] the same measures were 73%, 90% and over 80%.
Turning to `C/C(CC(O)(C(F)(F)F)C(F)(F)F)=N/Nc1ccc([N+](=O)[O-])cc1[N+](=O)[O-]` [NSC659196], the “Demethylase Residual Activity (%)” value on KDM4A turned out to be 92%; on KDM4B, 56%. Further, the “FDH Residual Activity (%)” value in data set [1] is given as over 80%.
Consider `CCCCCC/C(C)=N/Nc1ccc([N+](=O)[O-])cc1[N+](=O)[O-]` [NSC1018], for which the “Demethylase Residual Activity (%)” value is recorded as 85% at KDM4A and 62% at KDM4B. Also, the “FDH Residual Activity (%)” value in data set [1] is given as over 80%.
For the compound `O=C(O)c1ccnc(C(=O)O)c1` [PD2, pyridine 2,4-dicarboxylic acids, reference compound], the “demethylation activity on histones (H3K9me3, H3K36me3 western blot)” value with KDM4A/KDM4B [5] is given as “blocked the demethylation activity”. In addition, the “Demethylase Residual Activity (%)” value is listed as 21% at KDM4A and 24% at KDM4B.
Consider `C/C(=N/Nc1ccc([N+](=O)[O-])cc1[N+](=O)[O-])c1ccccc1` [NSC6129], for which the “Demethylase Residual Activity (%)” value on KDM4A worked out at 100%; at KDM4B it was 52%. In addition, in data set [1], the “FDH Residual Activity (%)” value is listed as over 80%.
Turning to `O=C(O)c1ccc(O)c2ncccc12` [5-carboxy-8HQ], the IC50 with HeLa cells was 86.5 µM.
`O=C(O)c1ccc(C(=O)c2ccccc2C(=O)O)cc1C(=O)O` [NSC28620]: in data set [1], the “FDH Residual Activity (%)” value is reported as over 80%. Moreover, in the data set on KDM4A/KDM4B [4], the “inhibitory effect on KDM4A/KDM4B (in words)” value was “completely lost the inhibitory effects”.

As usually defined, the IC50 is the concentration needed to halve the response being measured.
